# Assay results taken from US7511041B2, “Fused azole-pyrimidine derivatives” (Bayer Pharmaceuticals Corporation, priority 2002, dated 2009).
# pIC50: −log10 of the molar value.
# Columns and labels:
# [1] = molecular target: T1, Recombinant human PI3Kγ (full length human PI3K p110γ) (Homo sapiens, UniProt P48736); test: Kinase assay of PI3Kγ (solid-phase lipid kinase assay); assay type: biochemical; conditions: in vitro PI3K-γ inhibitory activity, class symbols A-D; read-out: in vitro PI3K-gamma
# T1 construct: full length human PI3K p110γ fused with a His6-tag at the C-terminus; His6 (C); purchased ALEXIS BIOCHEMICALS #201-055-C010; host or cells: S. frugiperda 9 insect cells
# T1 sequence (P48736 whole entry, the tested form may be a part): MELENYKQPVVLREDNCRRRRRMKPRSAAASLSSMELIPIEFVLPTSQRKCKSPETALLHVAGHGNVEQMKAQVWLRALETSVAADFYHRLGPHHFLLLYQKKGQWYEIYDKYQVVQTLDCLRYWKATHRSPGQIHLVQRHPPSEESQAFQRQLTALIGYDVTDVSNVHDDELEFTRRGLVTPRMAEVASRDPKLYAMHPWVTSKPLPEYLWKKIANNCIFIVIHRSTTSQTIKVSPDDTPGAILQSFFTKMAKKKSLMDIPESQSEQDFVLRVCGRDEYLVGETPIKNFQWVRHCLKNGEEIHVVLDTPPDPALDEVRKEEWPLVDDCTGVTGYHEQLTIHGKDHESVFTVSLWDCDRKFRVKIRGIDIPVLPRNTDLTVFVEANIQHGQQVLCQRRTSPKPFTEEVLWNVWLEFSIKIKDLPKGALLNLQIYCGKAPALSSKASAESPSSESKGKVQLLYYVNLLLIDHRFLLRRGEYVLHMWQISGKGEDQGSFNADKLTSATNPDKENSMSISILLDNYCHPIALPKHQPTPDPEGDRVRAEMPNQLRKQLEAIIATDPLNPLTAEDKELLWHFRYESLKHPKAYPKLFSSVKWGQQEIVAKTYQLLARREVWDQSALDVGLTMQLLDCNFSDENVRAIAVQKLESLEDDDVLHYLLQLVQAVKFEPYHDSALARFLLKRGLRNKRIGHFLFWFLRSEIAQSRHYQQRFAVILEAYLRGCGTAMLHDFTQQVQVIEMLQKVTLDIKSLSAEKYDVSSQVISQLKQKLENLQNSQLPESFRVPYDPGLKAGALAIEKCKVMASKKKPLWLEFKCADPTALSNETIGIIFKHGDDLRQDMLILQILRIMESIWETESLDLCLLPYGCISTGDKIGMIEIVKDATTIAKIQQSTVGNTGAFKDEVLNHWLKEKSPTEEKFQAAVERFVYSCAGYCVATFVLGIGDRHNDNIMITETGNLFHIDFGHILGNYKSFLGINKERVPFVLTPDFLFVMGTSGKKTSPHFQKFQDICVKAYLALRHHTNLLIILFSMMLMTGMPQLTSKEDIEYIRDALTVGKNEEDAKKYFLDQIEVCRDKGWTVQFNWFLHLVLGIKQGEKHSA
Compound,pIC50 [1],melting point
O=C(NC1=Nc2ccccc2C2=NCCN12)c1ccc(C(F)(F)F)nc1 [Example 2-280],< 5.70,219 to 220 °C
Cl.O=C(NC1=Nc2ccccc2C2=NCCN12)c1ccc(C(F)(F)F)nc1 [Example 2-281],5.70 to 6.30,> 250 °C
CN(C)c1ccc(C(=O)NC2=Nc3ccccc3C3=NCCN23)cn1 [Example 2-282],< 5.70,249 °C (dec.)
CN(C)c1ccc(C(=O)NC2=Nc3ccccc3C3=NCCN23)cn1.Cl [Example 2-283],5.70 to 6.30,311 °C (dec.)
Cl.O=C(NC1=Nc2ccccc2C2=NCCN12)c1cccnc1O [Example 2-284],< 5.70,346 °C (dec.)
COc1ncccc1C(=O)NC1=Nc2ccccc2C2=NCCN12 [Example 2-285],5.70 to 6.30,198 to 199 °C
COc1ccc(C(=O)NC2=Nc3ccccc3C3=NCCN23)c(OC)n1 [Example 2-286],< 5.70,244 to 245 °C
COc1ccc(C(=O)NC2=Nc3ccccc3C3=NCCN23)c(OC)n1.Cl [Example 2-287],5.70 to 6.30,210 °C (dec.)
CSc1ncccc1C(=O)NC1=Nc2ccccc2C2=NCCN12 [Example 2-288],< 5.70,233 to 234 °C
CSc1ncccc1C(=O)NC1=Nc2ccccc2C2=NCCN12.Cl [Example 2-289],5.70 to 6.30,298 to 299 °C
Cc1ccc(C(=O)NC2=Nc3ccccc3C3=NCCN23)c(Cl)n1 [Example 2-290],6.30 to 7.00,213 to 214 °C
O=C(NC1=Nc2ccccc2C2=NCCN12)c1ccc(Cl)nc1 [Example 2-291],6.30 to 7.00,246 to 247 °C
O=C(NC1=Nc2ccccc2C2=NCCN12)c1cnccn1 [Example 2-292],5.70 to 6.30,267 to 268 °C
Cc1cnc(C(=O)NC2=Nc3ccccc3C3=NCCN23)cn1 [Example 2-294],5.70 to 6.30,257 °C (dec.)
Cn1cccc1C(=O)NC1=Nc2ccccc2C2=NCCN12 [Example 2-296],5.70 to 6.30,128 to 129 °C
O=C(NC1=Nc2ccccc2C2=NCCN12)c1ccco1 [Example 2-298],5.70 to 6.30,350 °C (dec.)
Cl.O=C(NC1=Nc2ccccc2C2=NCCN12)c1ccco1 [Example 2-299],5.70 to 6.30,311 °C (dec.)
O=C(NC1=Nc2ccccc2C2=NCCN12)c1ccco1.O=C(O)C(F)(F)F [Example 2-300],6.30 to 7.00,230 to 232 °C
O=C(NC1=Nc2ccccc2C2=NCCN12)c1ccc(Cl)s1 [Example 2-301],< 5.70,198 °C (dec.)
Cc1ccc(C(=O)NC2=Nc3ccccc3C3=NCCN23)s1 [Example 2-302],5.70 to 6.30,192 to 193 °C
O=C(NC1=Nc2ccccc2C2=NCCN12)c1ccc([N+](=O)[O-])s1 [Example 2-303],< 5.70,286 to 287 °C
O=C(NC1=Nc2ccccc2C2=NCCN12)c1csc([N+](=O)[O-])c1 [Example 2-305],< 5.70,269 to 270 °C
O=C(NC1=Nc2ccccc2C2=NCCN12)c1csnn1 [Example 2-307],5.70 to 6.30,219 °C (dec.)

Compound,pIC50 [1],melting point
Cc1nc2cc(C(=O)NC3=Nc4ccccc4C4=NCCN34)ccc2[nH]1.Cl [Example 2-308],6.30 to 7.00,344 °C (dec.)
CC(C)n1c(C(F)(F)F)nc2cc(C(=O)NC3=Nc4ccccc4C4=NCCN34)ccc21 [Example 2-309],< 5.70,250 to 253 °C
O=C(NC1=Nc2ccccc2C2=NCCN12)c1ccc2[nH]nnc2c1.O=C(O)C(F)(F)F [Example 2-310],6.30 to 7.00,252 °C (dec.)
CC(C)n1nnc2cc(C(=O)NC3=Nc4ccccc4C4=NCCN34)ccc21 [Example 2-311],< 5.70,202 to 203 °C
O=C(NC1=Nc2ccccc2C2=NCCN12)c1ccc2ncsc2c1 [Example 2-312],< 5.70,303 to 305 °C
Cl.O=C(NC1=Nc2ccccc2C2=NCCN12)c1ccc2ncsc2c1 [Example 2-313],5.70 to 6.30,314 °C (dec.)
Cn1c(C(=O)NC2=Nc3ccccc3C3=NCCN23)cc2ccccc21 [Example 2-314],< 5.70,259 to 260 °C
Cn1cc(C(=O)NC2=Nc3ccccc3C3=NCCN23)c2ccccc21 [Example 2-315],< 5.70,288 to 289 °C
O=C(NC1=Nc2ccccc2C2=NCCN12)c1cnc2ccccc2c1 [Example 2-316],< 5.70,263 to 264 °C
Cl.O=C(NC1=Nc2ccccc2C2=NCCN12)c1cnc2ccccc2c1 [Example 2-317],6.30 to 7.00,319 °C (dec.)
Cl.O=C(NC1=Nc2ccccc2C2=NCCN12)c1cccc2cccnc12 [Example 2-318],< 5.70,316 °C (dec.)
O=C(NC1=Nc2ccccc2C2=NCCN12)c1csc(-c2cccnc2)n1 [Example 2-319],< 5.70,260 to 261 °C
O=C(NC1=Nc2ccccc2C2=NCCN12)c1csc(-c2ccncc2)n1 [Example 2-321],< 5.70,281 °C (dec.)
COc1ccc(CC(=O)NC2=Nc3ccccc3C3=NCCN23)cc1 [Example 2-323],< 5.70,167 to 168 °C
O=C(Cc1cccs1)NC1=Nc2ccccc2C2=NCCN12 [Example 2-324],< 5.70,122 to 123 °C
O=C(COc1ccccc1)NC1=Nc2ccccc2C2=NCCN12 [Example 2-325],< 5.70,149 to 150 °C
CC(=O)NC1=Nc2ccccc2C2=NCCN12 [Example 2-326],< 5.70,189 °C
CCCC(=O)NC1=Nc2ccccc2C2=NCCN12 [Example 2-328],< 5.70,121 to 122 °C
CC(C)CC(=O)NC1=Nc2ccccc2C2=NCCN12 [Example 2-329],< 5.70,154 °C (dec.)
CC(C)C(=O)NC1=Nc2ccccc2C2=NCCN12 [Example 2-330],< 5.70,104 to 105 °C
CC(C)(C)C(=O)NC1=Nc2ccccc2C2=NCCN12 [Example 2-331],< 5.70,135 to 136 °C
O=C(NC1=Nc2ccccc2C2=NCCN12)C(Cl)(Cl)Cl [Example 2-332],5.70 to 6.30,194 °C (dec.)
O=C(NC1=Nc2ccccc2C2=NCCN12)C(F)(F)C(F)(F)F [Example 2-333],< 5.70,210 to 211 °C

Compound,pIC50 [1],melting point
O=C(NC1=Nc2ccccc2C2=NCCN12)C1CC1 [Example 2-334],< 5.70,164 to 165 °C
O=C(NC1=Nc2ccccc2C2=NCCN12)C1CCCCC1 [Example 2-335],< 5.70,170 to 172 °C
O=C(NC1=Nc2ccccc2C2=NCCN12)C1CCCCN1C(=O)OCc1ccccc1 (centres unmarked) [Example 2-337],< 5.70,119 to 120 °C
CC(C)(C)OC(=O)N1CCCC(C(=O)NC2=Nc3ccccc3C3=NCCN23)C1 (centres unmarked) [Example 2-338],< 5.70,147 to 148 °C
O=C(NC1=Nc2ccccc2C2=NCCN12)C1CCNCC1 [Example 2-339],< 5.70,179 to 180 °C
O=C(NC1=Nc2ccccc2C2=NCCN12)C1CCN(C(=O)OCc2ccccc2)CC1 [Example 2-341],< 5.70,111 to 112 °C
COc1cc2c(cc1OC)C1=NCCN1C(NC(C)=O)=N2 [Example 2-343],< 5.70,240 to 241 °C
CCC(=O)NC1=Nc2cc(OC)c(OC)cc2C2=NCCN12 [Example 2-344],< 5.70,224 to 225 °C
CN(C)c1ccc2c(c1)C1=NCCN1C(NC(=O)c1cccnc1)=N2 [Example 2-345],5.70 to 6.30,269 °C
CN(C)c1ccc2c(c1)C1=NCCN1C(NC(=O)c1cccs1)=N2 [Example 2-346],< 5.70,272 °C
O=C(NC1=Nc2ccc(N3CCOCC3)cc2C2=NCCN12)c1cccnc1 [Example 2-347],< 5.70,244 °C
O=C(NC1=Nc2ccc(N3CCOCC3)cc2C2=NCCN12)c1cccs1 [Example 2-348],< 5.70,124 °C
O=C(NC1=Nc2cc(C(F)(F)F)ccc2C2=NCCN12)c1cccs1 [Example 2-349],6.30 to 7.00,226 °C
Cl.O=C(NC1=Nc2cc(C(F)(F)F)ccc2C2=NCCN12)c1cccs1 [Example 2-350],5.70 to 6.30,292 °C
O=C(NC1=Nc2ccc(Br)cc2C2=NCCN12)c1cccs1 [Example 2-351],< 5.70,232 °C
Cl.O=C(NC1=Nc2ccc(Br)cc2C2=NCCN12)c1cccs1 [Example 2-352],5.70 to 6.30,275 °C
O=C(NC1=Nc2cc(Cl)ccc2C2=NCCN12)c1cccnc1 [Example 2-353],6.30 to 7.00,254 °C
O=C(NC1=Nc2cc(Cl)ccc2C2=NCCN12)c1cccs1 [Example 2-354],5.70 to 6.30,228 °C
O=C(NC1=Nc2ccc(Cl)cc2C2=NCCN12)c1cccs1 [Example 2-355],5.70 to 6.30,174 °C
Cl.O=C(NC1=Nc2ccc(Cl)cc2C2=NCCN12)c1cccs1 [Example 2-356],6.30 to 7.00,276 °C
O=C(NC1=Nc2cccc(Cl)c2C2=NCCN12)c1cccnc1 [Example 2-357],5.70 to 6.30,243 °C
